Source: PMC11241255 (International Journal of Molecular Sciences, 2024)
Values joined by “and” are separate entries in the source; they are usually repeats but may differ in a detail not shown here. Equal entries are not always repeated. Where two headings read alike, the source gives them in different places.

Key:
[1] = Ferric reducing antioxidant potential (FRAP) assay; details: 1 mg/mL
Protocol: FRAP assay was used to assess the […] of the extracts and phytocompounds with slight modification in a previously reported method. For the assay, the extract (1 mg/mL) was incubated with 200 μL of FRAP reagent, and the reduction of ferric tripyridyltriazine was monitored at 593 nm (Multimode reader, Synergy-H1 BioTek, Agilent, USA). Ascorbic acid (2 μg/mL) was used as a positive control. FRAP values of the extracts and phytocompounds were calculated from the standard curve of FeSO4 (15–250 μM) and expressed as μM Fe^2+/g.

[2] = target: T1, Acetylcholinesterase (Electrophorus electricus, Type VI-S) (Electrophorus electricus, UniProt O42275); assay: biochemical; details: for Type of Inhibition of AChE: Lineweaver–Burk plot, 100 and 200 μg/mL; for Vmax of AChE in presence of inhibitor: no inhibitor 2.975; for IC50: read-out: AChE IC50 (converted)
T1 construct: purchased Sigma-Aldrich
T1 sequence (O42275 24-633): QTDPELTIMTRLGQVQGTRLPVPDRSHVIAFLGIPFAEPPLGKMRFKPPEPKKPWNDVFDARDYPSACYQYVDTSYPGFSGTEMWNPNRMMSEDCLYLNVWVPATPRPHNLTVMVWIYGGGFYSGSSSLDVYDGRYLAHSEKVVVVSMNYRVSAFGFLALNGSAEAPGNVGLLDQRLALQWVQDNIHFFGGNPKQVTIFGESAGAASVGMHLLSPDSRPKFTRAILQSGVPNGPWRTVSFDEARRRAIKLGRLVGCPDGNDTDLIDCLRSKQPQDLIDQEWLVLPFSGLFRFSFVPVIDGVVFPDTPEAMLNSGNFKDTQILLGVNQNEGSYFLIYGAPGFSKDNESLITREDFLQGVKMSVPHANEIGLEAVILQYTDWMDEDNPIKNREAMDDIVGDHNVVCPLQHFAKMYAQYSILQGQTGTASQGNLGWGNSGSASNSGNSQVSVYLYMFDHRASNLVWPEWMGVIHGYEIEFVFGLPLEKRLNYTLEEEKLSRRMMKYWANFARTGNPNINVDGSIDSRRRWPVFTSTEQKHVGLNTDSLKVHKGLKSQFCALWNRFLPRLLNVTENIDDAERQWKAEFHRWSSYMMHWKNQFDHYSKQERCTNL
Protocol: The AChE activity was examined by slight modifications [23] in Ellman’s method [76]. The extracts and phytocompounds were incubated for 15 min with AChE and 10 mM ATCC at 37 °C. The reaction was stopped by DTNB (15 mM), and the absorbance was measured at 412 nm (Multi-mode plate reader, Synergy-H1 BioTek, Agilent, USA). […] The percent inhibition was calculated as:Percent Inhibition (I%) = [(Ao − Ac) − (Bi − Bc)]/(Ao − Ac) × 100 where Ao is the absorbance without inhibitor; Ac is the negative control without inhibitor; Bi is the absorbance with inhibitor; and Bc is the negative control with inhibitor. The IC50 values were calculated using GraphPad Prism 10. Lineweaver–Burk plot was used to prepare the inhibition curves (with and without extract/phytocompound) using GraphPad Prism 10. The kinetic parameters were calculated from a non-linear fit (Michaelis–Menten equation) in GraphPad Prism 10.
Statistical analysis was established by a one-way ANOVA followed by Dunnett’s post hoc test. Data are registered as the mean ± SEM of three sets of experiments. […] The IC50 values were determined using non-linear regression. The Vmax and Km were calculated from a Michaelis–Menten plot drawn using a non-linear plot (GraphPad Prism 10). Lineweaver–Burk plots were drawn using linear regression analysis (GraphPad Prism 10). The Ki values were calculated from the formula IC50 = Ki (1 + [S]/Km).

Aβ1–42 [3] = target: T2, Aβ1–42 (Homo sapiens, UniProt P05067); assay: Anti-Aβ1–42 oligomerization, multimeric detection system (MDS); type: biochemical; details: vs negative control (Buffer + Aβ)
T2 construct: Aβ1–42 for MDS (GenicBio Inc., Shanghai, China); purchased GenicBio Inc
T2 sequence (P05067 672-713): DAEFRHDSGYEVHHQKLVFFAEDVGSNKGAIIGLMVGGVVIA
Protocol: The anti-Aβ1–42 oligomerization and fibrilization activity of the extracts/bioactives were measured by Multiple Detection System (MDS) and ThT assay, respectively. Briefly, the extracts and phytocompounds were incubated with Aβ1–42 at RT for different time points (0 h, 2 h, and 4 h). The samples were incubated on an anti-β-amyloid pre-coated plate for 1 h at RT. An HRP-conjugated W0–2 monoclonal antibody was added, and the plate was kept at RT for 30 min. Later, TMB was added, and the plate was incubated for 15 min at RT. The absorbance was read at 450 nm using a microplate reader (Victor3, PerkinElmer, Shelton, CT, USA)

Aβ1–42 [4] = target: T2, Aβ1–42; assay: Anti-Aβ1–42 fibrilization, ThT assay; type: biochemical; details: samples 500 μg/mL; 37 °C 24 h
Protocol: The anti-Aβ1–42 fibrilization activity of the extracts/bioactives was monitored using a ThT assay. The samples were incubated in the presence/absence of Aβ1–42 at 37 °C for 24 h. The samples were incubated with 100 μM ThT at 37 °C for 15 min. The fluorescence was monitored at Ex 450 nm/Ems 490 nm (Synergy-H1 BioTek, Agilent, Santa Clara, CA, USA). For the control, phenol red (50 μM) was used. The Aβ1–42 aggregation inhibition was calculated as follows:Percent Inhibition (%) = [(1 − Fi/Fc) × 100] where Fi and Fc are the fluorescence intensity with and without the inhibitors, respectively.

[5] = tested on: H2O2-induced ROS production in SH-SY5Y cells; assay: Intracellular ROS measurement (H2DCFDA); type: cell-based, Human; details: 12 h pre-treatment, H2O2 100 µM 2 h, H2O2 alone 156.96 ± 5.07%
Protocol: (§1) Human neuroblastoma SH-SY5Y cells (ATCC CRL-2266, Manassas, VA, USA) were maintained in Dulbecco’s modified Eagle’s medium (DMEM, Gibco) supplemented with 10% fetal bovine serum (FBS), 1% kanamycin, and 1% penicillin (Thermo Fisher Scientific, Waltham, MA, USA) at 37 °C with 5% CO2, and a 95% humidified atmosphere in the incubator. The experiments were executed at 80–90% cell confluency.
The cells (1 × 10^4 cells/well) were seeded in a 96-well sterile plate, after which they were pre-treated with the extract for 12 h. […] The fluorescence intensity (Ex 495 nm, Ems 520 nm) was measured by a microplate reader (Synergy-H1 BioTek, Agilent, USA). The ROS was calculated as a percentage of the untreated control cells (100%) in triplicate measurements.

SH-SY5Y cells = assay: Mitochondrial membrane potential (ΔΨm) assay (TMRE); type: cell-based, Human; details: 12 h pre-treatment, 200 μM H2O2 2 h
Protocol: as §1
The mitochondrial membrane potential was measured using the tetramethylrhodamine, methyl ester (TMRE) staining method. The cells (1 × 10^4 cells/well) were seeded in a 96-well sterile plate; after which, they were pre-treated with the extract for 12 h. The extracts and phytocompounds were removed, followed by a 2 h treatment with H2O2 (200 μM). A 1 μM amount of TMRE was added to the cells and incubated for 1 h at 37 °C. The fluorescence was assessed (Ex 549 nm, Ems 575 nm) using a microplate reader (Synergy-H1 BioTek, Agilent, USA). The ΔΨm was calculated as a percentage of the untreated control cells (100%) in triplicate measurements.

SH-SY5Y cells lysate = assay: Malondialdehyde (MDA) in cell lysate (TBA:TCA); type: cell-based, Human; details: 24 h pre-treatment, 6 h H2O2 100 μM
Protocol: as §1
The cells (5 × 10^4 cells/well) were seeded in a 6-well sterile plate and incubated for 18–24 h. After stabilization, cells were pre-treated with the extracts and phytocompounds for 24 h before 6 h incubation with H2O2 (100 μM). The culture media was removed, and the cells were washed with cold PBS (1X). The cells were placed on ice and incubated with pre-chilled RIPA buffer for 10 min. Transfer the lysate in microfuge tubes and centrifuge (Labogene 1730R, BMS, Paju-si, Republic of Korea) for 10 min at 20,000× g, 4 °C. The supernatant was collected and stored at −80 °C.
MDA levels were measured using TBA: TCA reagent as described previously. In the reaction, MDA reacts with two molecules of thiobarbituric acid (TBA) to give a pink pigment that absorbs at 532 nm. The standard curve of MDA (1–100 μM) was used to calculate lipid peroxidation in the lysate.

AChE = details: cited from earlier work
rodent models = details: cited from earlier work
[6] = cited from earlier work

With `C=C(C)[C@H]1CC=C(C)C(=O)C1` [carvone, D-carvone] the FRAP value [1] was 43.25 ± 2.50 µM Fe^2+/g, the Ki ([2]; Ki) was 1800 µM and the Ki ([2]; Ki (inhibitor constant), AChE) was 1800 µM and 1790 µM. For the same compound, the “Type of Inhibition of AChE” value [2] was “competitive inhibition”, the “Type of Inhibition of AChE” value ([2]; listed as Carvone) was “Competitive” and the “Vmax of AChE in presence of inhibitor” value ([2]; inhibitor 100 μg/mL) was 2.900 µmol/min/mg. The “Vmax of AChE in presence of inhibitor” value ([2]; inhibitor 200 μg/mL) was 3.141 µmol/min/mg, the IC50 ([2]; mean of three experiments ± SEM) was 1840 µM and the IC50 ([2]; molar equivalent of the μg/mL value) was 1830 µM. For the same compound, the “Aβ oligomerization reduction (relative amount of Aβ oligomers)” value (Aβ1–42 [3]; 2 h incubation) was “statistically significant”, the “Aβ oligomerization reduction (relative amount of Aβ oligomers)” value (Aβ1–42 [3]; 4 h incubation) was “statistically significant” and the “Aβ fibrilization inhibition (ThT)” value (Aβ1–42 [4]) was 42.37 ± 0.76%. The “ROS level (% of untreated cells)” value ([5]; 1 µg/mL) was 122.82 ± 6.63%, the “ROS level (% of untreated cells)” value ([5]; 10 µg/mL) was 110.70 ± 4.90% and the “ROS level (% of untreated cells)” value ([5]; 30 µg/mL) was 107.11 ± 8.34%. The “MMP (% ΔΨm vs untreated cells)” value (SH-SY5Y cells; 0.1 µg/mL) was 71.61 ± 0.70%, the “MMP (% ΔΨm vs untreated cells)” value (SH-SY5Y cells; 1 µg/mL) was 80.80 ± 1.20% and the “MMP (% ΔΨm vs untreated cells)” value (SH-SY5Y cells; 10 µg/mL) was 85.18 ± 4.96%. For the same compound, the “MMP (% ΔΨm vs untreated cells)” value (SH-SY5Y cells; 30 µg/mL) was 87.19 ± 6.26%, the MDA level (SH-SY5Y cells lysate; 0.1 µg/mL) was 1.71 µM and the MDA level (SH-SY5Y cells lysate; 1 and 10 µg/mL) was ~ 1.33 µM. The AChE inhibition (AChE; at 1 mg/mL) was 23.6%, the “AChE IC50” value (AChE) was 835.2 µg/mL and the IC50 (AChE) was 5560 µM. For the same compound, the Ki (AChE; ref Grundy et al. 51) was 680 µM, the LD50 (rodent models) was 1640 mg/kg and the BBB permeability [6] was “can cross BBB”.
